Experiments:
[1] = system: LNCap prostate tumor cells; assay: In vitro cytotoxicity, Alamar Blue assay, LNCaP cell kill in 72 hrs; assay type: cell-based; conditions: Table 3, 3 days, TFA salt of cytotoxic agent unless otherwise indicated, read-out: LNCaP Cell Kill in 72 HRS EC5O
Procedure: (§1) The cytotoxicities of the vinca alkaloid derivatives, prepared as described in Example 1, and the cleaveable oligopeptide-vinca drug conjugates, prepared as described in Examples 2 and 2A, against a line of cells which is known to be killed by unmodified vinca drug was assessed with an Alamar Blue assay. Specifically, cell cultures of LNCap prostate tumor cells, Colo320DM cells (also designated C320), T24 bladder carcinoma cells or T47D breast carcinoma cells in 96 well plates was diluted with medium containing various concentrations of a given conjugate (final plate well volume of 200 μl). The cells were incubated for 3 days at 37° C., 20 μl of Alamar Blue is added to the assay well. The cells were further incubated and the assay plates were read on a EL-310 ELISA reader at the dual wavelengths of 570 and 600 nm at 4 and 7 hours after addition of Alamar Blue. Relative percentage viability at the various concentration of conjugate tested was then calculated versus control (no cytotoxic agent or conjugate) cultures. Unless otherwise indicated, the TFA salt of the cytotoxic agent and the acetate salt of the conjugate were tested.

[2] = system: Colo320DM cells (also designated C320); assay: In vitro cytotoxicity, Alamar Blue assay, Colo320DM cells; assay type: cell-based; conditions: Table 3, value in parentheses, TFA salt unless otherwise indicated, read-out: Cell Kill in 72 HRS EC5O, Colo320DM
Procedure: as §1

CC[C@]1(O)C[C@@H]2CN(CCc3c([nH]c4ccccc34)[C@@](C(=O)OC)(c3cc4c(cc3OC)N(C)[C@H]3[C@@](O)(C(=O)N[C@H](CO)Cc5ccccc5)[C@H](O)[C@]5(CC)C=CCN6CC[C@]43[C@@H]65)C2)C1 [L-phenylalaninol-(dAc)-VIN]
EC50 [1]: 500 nM
EC50 [2]: 3500 nM

CCC1(O)CC2CN(CCc3c([nH]c4ccccc34)C(C(=O)OC)(c3cc4c(cc3OC)N(C)C3C(O)(C(=O)NC(CO)Cc5c[nH]c6ccccc56)C(O)C5(CC)C=CCN6CCC43C65)C2)C1 (stereo not shown) [tryptophanol-(dAc)-VIN]
EC50 [1]: 600 nM
EC50 [2]: 2900 nM

CCC(CO)NC(=O)[C@@]1(O)[C@H](O)[C@]2(CC)C=CCN3CC[C@@]4(c5cc([C@@]6(C(=O)OC)C[C@H]7CN(CCc8c6[nH]c6ccccc86)C[C@](O)(CC)C7)c(OC)cc5N(C)[C@@H]14)[C@@H]32 (stereo partly shown) [2-Aminobutanol-(dAc)-VIN]
EC50 [1]: 2900 nM
EC50 [2]: 7100 nM

CC[C@]1(O)C[C@@H]2CN(CCc3c([nH]c4ccccc34)[C@@](C(=O)OC)(c3cc4c(cc3OC)N(C)[C@H]3[C@@](O)(C(=O)N[C@H](CO)CC(C)C)[C@H](O)[C@]5(CC)C=CCN6CC[C@]43[C@@H]65)C2)C1 [L-leucinol-(dAc)-VIN]
EC50 [1]: 700 nM
EC50 [2]: 2000 nM

CCC1(O)CC2CN(CCc3c([nH]c4ccccc34)C(C(=O)OC)(c3cc4c(cc3OC)N(C)C3C(O)(C(=O)NC(C)C(O)c5cccc(OC)c5)C(O)C5(CC)C=CCN6CCC43C65)C2)C1 (stereo not shown) [3-methoxy-norephedrine-(dAc)-VIN]
EC50 [1]: 1800 nM
EC50 [2]: 5100 nM

CC[C@]1(O)C[C@@H]2CN(CCc3c([nH]c4ccccc34)[C@@](C(=O)OC)(c3cc4c(cc3OC)N(C)[C@H]3[C@@](O)(C(=O)N[C@H](CO)C(C)C)[C@H](O)[C@]5(CC)C=CCN6CC[C@]43[C@@H]65)C2)C1 [L-Valinol-(dAc)-VIN]
EC50 [1]: 400 nM
EC50 [2]: 800 nM

CC[C@]1(O)C[C@@H]2CN(CCc3c([nH]c4ccccc34)[C@@](C(=O)OC)(c3cc4c(cc3OC)N(C)[C@H]3[C@@](O)(C(=O)NC(C)C(O)C5CCCCC5)[C@H](O)[C@]5(CC)C=CCN6CC[C@]43[C@@H]65)C2)C1 (single isomer, unassigned; isomer a) [(3-cyclohexyl-3-hydroxyl-2-propylaminol)-(dAc)-VIN isomer A]
EC50 [1]: 300 nM
EC50 [2]: 500 nM

CC[C@]1(O)C[C@@H]2CN(CCc3c([nH]c4ccccc34)[C@@](C(=O)OC)(c3cc4c(cc3OC)N(C)[C@H]3[C@@](O)(C(=O)N5CCCC(O)C5)[C@H](O)[C@]5(CC)C=CCN6CC[C@]43[C@@H]65)C2)C1 (single isomer, unassigned; isomer a) [3-hydroxyl-piperidine-(dAc)-VIN, isomer A]
EC50 [1]: 500 nM
EC50 [2]: 500 nM

CC[C@]1(O)C[C@@H]2CN(CCc3c([nH]c4ccccc34)[C@@](C(=O)OC)(c3cc4c(cc3OC)N(C)[C@H]3[C@@](O)(C(=O)NC(C)C(O)C5CCCCC5)[C@H](O)[C@]5(CC)C=CCN6CC[C@]43[C@@H]65)C2)C1 (single isomer, unassigned; isomer b) [(3-cyclohexyl-3-hydroxyl-2-propylaminol)-(dAc)-VIN isomer B]
EC50 [1]: 1200 nM
EC50 [2]: 800 nM

CC[C@]1(O)C[C@@H]2CN(CCc3c([nH]c4ccccc34)[C@@](C(=O)OC)(c3cc4c(cc3OC)N(C)[C@H]3[C@@](O)(C(=O)NC(CO)CO)[C@H](O)[C@]5(CC)C=CCN6CC[C@]43[C@@H]65)C2)C1 [Serinol-(dAc)-VIN]
EC50 [1]: 800 nM
EC50 [2]: 8300 nM

CC[C@]1(O)C[C@@H]2CN(CCc3c([nH]c4ccccc34)[C@@](C(=O)OC)(c3cc4c(cc3OC)N(C)[C@H]3[C@@](O)(C(=O)N5CCC(O)C5)[C@H](O)[C@]5(CC)C=CCN6CC[C@]43[C@@H]65)C2)C1 (stereo partly shown) [3-hydroxylpyrrolidine-(dAc)-VIN]
EC50 [1]: 200 nM
EC50 [2]: 1500 nM

CC[C@]1(O)C[C@@H]2CN(CCc3c([nH]c4ccccc34)[C@@](C(=O)OC)(c3cc4c(cc3OC)N(C)[C@H]3[C@@](O)(C(=O)NCC(C)O)[C@H](O)[C@]5(CC)C=CCN6CC[C@]43[C@@H]65)C2)C1 (stereo partly shown) [2-hydroxylpropylamino-(dAc)-VIN]
EC50 [1]: 1200 nM
EC50 [2]: 2900 nM

CC[C@H](C)[C@@H](CO)NC(=O)[C@@]1(O)[C@H](O)[C@]2(CC)C=CCN3CC[C@@]4(c5cc([C@@]6(C(=O)OC)C[C@H]7CN(CCc8c6[nH]c6ccccc86)C[C@](O)(CC)C7)c(OC)cc5N(C)[C@@H]14)[C@@H]32 [L-isoleucinol-(dAc)-VIN]
EC50 [1]: 900 nM
EC50 [2]: 1700 nM

CCC1(O)CC2CN(CCc3c([nH]c4ccccc34)C(C(=O)OC)(c3cc4c(cc3OC)N(C)C3C(O)(C(=O)NC(C)C(O)c5ccccc5)C(O)C5(CC)C=CCN6CCC43C65)C2)C1 (single isomer, unassigned; isomer b) [norephedrine-(dAc)-VIN, isomer B]
EC50 [1]: 200 nM
EC50 [2]: 400 nM

CCC1(O)CC2CN(CCc3c([nH]c4ccccc34)C(C(=O)OC)(c3cc4c(cc3OC)N(C)C3C(O)(C(=O)N5CCC(O)CC5)C(O)C5(CC)C=CCN6CCC43C65)C2)C1 (stereo not shown) [4-hydroxylpiperidine-(dAc)-VIN]
EC50 [1]: 200 nM
EC50 [2]: 800 nM

CC[C@]1(O)C[C@@H]2CN(CCc3c([nH]c4ccccc34)[C@@](C(=O)OC)(c3cc4c(cc3OC)N(C)[C@H]3[C@@](O)(C(=O)N[C@H](CO)CC5CCCCC5)[C@H](O)[C@]5(CC)C=CCN6CC[C@]43[C@@H]65)C2)C1 [L-cyclolhexyl-alaninol-(dAc)-VIN]
EC50 [1]: 1000 nM
EC50 [2]: 2000 nM

CC[C@]1(O)C[C@@H]2CN(CCc3c([nH]c4ccccc34)[C@@](C(=O)OC)(c3cc4c(cc3OC)N(C)[C@H]3[C@@](O)(C(=O)NCC5(O)CCCCC5)[C@H](O)[C@]5(CC)C=CCN6CC[C@]43[C@@H]65)C2)C1 [1-hydroxylcyclohexylmethyamino-(dAc)-VIN]
EC50 [1]: 500 nM
EC50 [2]: 15800 nM

CC[C@]1(O)C[C@@H]2CN(CCc3c([nH]c4ccccc34)[C@@](C(=O)OC)(c3cc4c(cc3OC)N(C)[C@H]3[C@@](O)(C(=O)NC(CO)c5ccccc5)[C@H](O)[C@]5(CC)C=CCN6CC[C@]43[C@@H]65)C2)C1 (stereo partly shown) [Phenylglyinol-(dAc)-VIN]
EC50 [1]: 700 nM
EC50 [2]: 4800 nM

CCC1(O)CC2CN(CCc3c([nH]c4ccccc34)C(C(=O)OC)(c3cc4c(cc3OC)N(C)C3C(O)(C(=O)NC(C)C(O)c5ccccc5)C(O)C5(CC)C=CCN6CCC43C65)C2)C1 (single isomer, unassigned; isomer a) [norephedrine-(dAc)-VIN, isomer A]
EC50 [1]: 3000 nM
EC50 [2]: 3000 nM

CCOC(=O)[C@H](CC1CC1)NC(=O)[C@@]1(O)[C@H](O)[C@]2(CC)C=CCN3CC[C@@]4(c5cc([C@@]6(C(=O)OC)C[C@H]7CN(CCc8c6[nH]c6ccccc86)C[C@](O)(CC)C7)c(OC)cc5N(C)[C@@H]14)[C@@H]32 [L-cyclopropyl-alainine-OEt-(dAc)-VIN]
EC50 [1]: 1400 nM
EC50 [2]: 1000 nM

CC[C@]1(O)C[C@@H]2CN(CCc3c([nH]c4ccccc34)[C@@](C(=O)OC)(c3cc4c(cc3OC)N(C)[C@H]3[C@@](O)(C(=O)NC5CCCCC5O)[C@H](O)[C@]5(CC)C=CCN6CC[C@]43[C@@H]65)C2)C1 (single isomer, unassigned; isomer b) [(trans-2-hydroxyl)cyclohexylamino-(dAc)-VIN, Isomer B]
EC50 [1]: 800 nM
EC50 [2]: 800 nM

CC[C@]1(O)C[C@@H]2CN(CCc3c([nH]c4ccccc34)[C@@](C(=O)OC)(c3cc4c(cc3OC)N(C)[C@H]3[C@@](O)(C(=O)OC)[C@H](O)[C@]5(CC)C=CCN6CC[C@]43[C@@H]65)C2)C1 [(dAc)-VINBLASTINE, desacetylvinblastine, reference compound]
EC50 [1]: 300 nM
EC50 [2]: 500 nM

CC[C@]1(O)C[C@@H]2CN(CCc3c([nH]c4ccccc34)[C@@](C(=O)OC)(c3cc4c(cc3OC)N(C)[C@H]3[C@@](O)(C(=O)N5CCCC(O)C5)[C@H](O)[C@]5(CC)C=CCN6CC[C@]43[C@@H]65)C2)C1 (single isomer, unassigned; isomer b) [3-hydroxyl-piperidine-(dAc)-VIN, isomer B]
EC50 [1]: 500 nM

CC[C@]1(O)C[C@@H]2CN(CCc3c([nH]c4ccccc34)[C@@](C(=O)OC)(c3cc4c(cc3OC)N(C)[C@H]3[C@@](O)(C(=O)NC(c5ccccc5)C(O)c5ccccc5)[C@H](O)[C@]5(CC)C=CCN6CC[C@]43[C@@H]65)C2)C1 (stereo partly shown) [1,2-diPhenylethanolamino-(dAc)-VIN]
EC50 [1]: 2200 nM
EC50 [2]: 8900 nM

CC[C@]1(O)C[C@@H]2CN(CCc3c([nH]c4ccccc34)[C@@](C(=O)OC)(c3cc4c(cc3OC)N(C)[C@H]3[C@@](O)(C(=O)NC5CCCCC5O)[C@H](O)[C@]5(CC)C=CCN6CC[C@]43[C@@H]65)C2)C1 (single isomer, unassigned; isomer a) [(trans-2-hydroxyl)cyclohexylamine-(dAc)-VIN, Isomer A]
EC50 [1]: 100 nM
EC50 [2]: 200 nM

— patent US20020103136A1, “Conjugates useful in the treatment of prostate cancer” (priority 1998, published 2002)
